# Patent publication US8901118B2, “Compounds and methods for kinase modulation, and indications therefor” (Plexxikon Inc., priority 2010, dated 2014)
# Key:
# TrkA kinase = TrkA kinase (Homo sapiens, UniProt P04629); experiment: TrkA kinase biochemical activity assay (AlphaScreen); conditions: 100 μM ATP; read-out: Biochemical Inhibition IC50 TrkA
# Protocol: In one assay the biochemical activity IC50 values are determined with respect to inhibition of TrkA kinase activity, where inhibition of phosphorylation of a peptide substrate is measured as a function of compound concentration. Compounds to be tested, dissolved in DMSO (1 μL), are added to a white 384-well plate (Costar #3705). Working stocks of TrkA kinase (UBI), biotin-(E4Y)10 substrate (Upstate Biotech, Cat#12-440), and ATP (Sigma, Cat#A-3377) are prepared in 25 mM Hepes pH 7.5, 10 mM MnCl2, 1 mM DTT, 0.01% BSA, and 0.01% Tween-20. All components are added to the 384-well plate for a final concentration of 1 ng/well TrkA, 30 nM biotin-(E4Y)10 and 100 μM ATP in a volume of 20 μL. Each sample is at 5% DMSO. The plate is shaken for 1 minute at 1200 rpm, spun for 1 minute at 1000 rpm, then incubated for 40 minutes at room temperature. Just before use, working stocks of donor and acceptor beads from the AlphaScreen PY20 Detection Kit (PerkinElmer, Cat#676601M) are prepared in 25 mM Hepes pH 7.5, 100 mM EDTA. 0.01% BSA. Donor Beads solution (Streptavidin beads) is added (5 μL) to each well to final bead concentration of 10 μg/mL. The plate is incubated at room temperature for 20 minutes. Acceptor Beads solution (PY20 coated beads) are then added to each well (5 μL) to a final concentration of bead at 10 μg/mL. The plates are incubated at room temperature for 60 minutes. Fluorescence signal is recorded on the Envision reader. Phosphorylated substrate results in binding of the PY20 antibody and association of the donor and acceptor beads such that signal correlates with kinase activity. The signal vs. compound concentration is used to determine the IC50. Similar assays are used for TrkB and Trk C kinase.
# [1] = Relative solubility by turbidity in aqueous buffers (pH 1.5, 4.5, 6.8, 7.4); assay type: physicochemical; conditions: for turbidity threshold (L, M, H) 1.4: pH 1.5 (SGF); for turbidity threshold (L, M, H) 4.5: pH 4.5 (SIF); for turbidity threshold (L, M, H) 6.8: pH 6.8 (SIF); for turbidity threshold (L, M, H) 7.4: pH 7.4 (HEPES)
# Protocol: As an indication of relative solubility, the turbidity of compounds in aqueous solutions is assessed. To assess possible compound properties in different physiological compartments, such as stomach, intestine, and blood, a series of aqueous buffers with varying pH is used. Thus each compound is diluted into four different physiologically relevant buffers and solution turbidity is measured by spectrophotometry.
# Compounds are dissolved at a concentration of 25 mM in dimethyl sulfoxide, then serially diluted 1:1 into a 96 well plate, diluting 10 times in pure dimethyl sulfoxide, with the final well of each row a dimethyl sulfoxide blank. In an assay plate, 99 μL of appropriate buffer is added to each well, and 1 μL of each sample dilution is added to the buffer, achieving a range of final total concentrations in aqueous solutions having different pH. The buffers used are Simulated Gastric Fluid (SGF-pH 1.5) 0.5M NaCl, pH 1.5; Simulated Intestinal fluid (SIF-pH 4.5 and pH 6.8) 0.05M NaH2PO4, pH 4.5 and 6.8; and Hepes Buffer (HEPES-pH 7.4) 10 mM HEPES, 150 mM NaCl, pH 7.4. Control compounds pyrene, estriol and propranolol HCl are also assessed. Plates are spun and then mixed for 1 minute, and the absorbance is read using a Tecan Safire II to read wavelengths in the visible range (490, 535, and 650 nm) at four locations per well, reflecting the degree of turbidity present. The average optical density for each wavelength in each well is graphed vs. compound concentration, and the concentration at which the curve crosses a threshold O.D. of 0.01 for each wavelength is reported as the endpoint turbidity assay result. The average of the three wavelengths is used to compare turbidity of compounds.
# Sequence of TrkA kinase (P04629 33-796): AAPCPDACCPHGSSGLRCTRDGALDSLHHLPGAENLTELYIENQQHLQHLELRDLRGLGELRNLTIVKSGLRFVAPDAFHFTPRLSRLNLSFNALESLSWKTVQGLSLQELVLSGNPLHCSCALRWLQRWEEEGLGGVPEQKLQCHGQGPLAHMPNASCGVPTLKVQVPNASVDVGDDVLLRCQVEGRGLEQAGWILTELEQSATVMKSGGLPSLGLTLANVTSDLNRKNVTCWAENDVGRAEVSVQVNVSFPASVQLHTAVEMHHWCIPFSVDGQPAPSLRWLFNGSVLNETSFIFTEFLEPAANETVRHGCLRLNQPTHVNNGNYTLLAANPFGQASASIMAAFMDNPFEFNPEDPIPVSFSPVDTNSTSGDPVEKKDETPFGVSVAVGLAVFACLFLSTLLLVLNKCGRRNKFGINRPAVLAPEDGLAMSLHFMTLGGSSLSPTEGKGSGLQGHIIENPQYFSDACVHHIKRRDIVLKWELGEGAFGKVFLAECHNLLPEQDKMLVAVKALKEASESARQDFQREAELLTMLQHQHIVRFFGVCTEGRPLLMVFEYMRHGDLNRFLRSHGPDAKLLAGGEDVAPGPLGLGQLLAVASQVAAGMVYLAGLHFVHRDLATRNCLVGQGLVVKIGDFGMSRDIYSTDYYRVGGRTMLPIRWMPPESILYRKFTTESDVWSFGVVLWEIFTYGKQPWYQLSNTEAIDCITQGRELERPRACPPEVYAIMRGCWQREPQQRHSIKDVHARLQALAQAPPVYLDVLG
Compound,IC50 (TrkA kinase) [nM],"turbidity threshold (L, M, H) 1.4 [1]","turbidity threshold (L, M, H) 4.5 [1]","turbidity threshold (L, M, H) 6.8 [1]","turbidity threshold (L, M, H) 7.4 [1]"
"Clc1cnc2[nH]cc(Cc3cnc(Nc4ccccc4Cl)nc3)c2c1 [Compound P-3015, (2-Chloro-phenyl)-[5-(5-chloro-1H-pyrrolo[2,3-b]pyridin-3-ylmethyl)-pyrimidin-2-yl]-amine]",> 1000,,,,
"Fc1nc(NC2CCC(F)(F)CC2)ccc1Cc1c[nH]c2ncc(Cl)cc12 [Compound P-3013, [5-(5-Chloro-1H-pyrrolo[2,3-b]pyridin-3-ylmethyl)-6-fluoro-pyridin-2-yl]-(4,4-difluoro-cyclohexyl)-amine]",,L (low solubility if the threshold concentration is <31.3 μM),L (low solubility if the threshold concentration is <31.3 μM),L (low solubility if the threshold concentration is <31.3 μM),L (low solubility if the threshold concentration is <31.3 μM)
"Clc1ccc(Nc2ncc(Cc3c[nH]c4ncc(Cl)cc34)cn2)cc1 [Compound P-3011, (4-Chloro-phenyl)-[5-(5-chloro-1H-pyrrolo[2,3-b]pyridin-3-ylmethyl)-pyrimidin-2-yl]-amine]",> 1000,,,,
"COc1ccc(Nc2ccc(C(=O)c3c[nH]c4ncnc(N5CCCCC5)c34)c(F)n2)cn1 [Compound P-4069, [2-fluoro-6-[(6-methoxy-3-pyridyl)amino]-3-pyridyl]-[4-(1-piperidyl)-7H-pyrrolo[2,3-d]pyrimidin-5-yl]methanone]",< 100,,,,
"COc1ccc(Nc2ccc(C(=O)c3c[nH]c4ncnc(NC(C)(C)C)c34)c(F)n2)cn1 [Compound P-4055, [4-(tert-butylamino)-7H-pyrrolo[2,3-d]pyrimidin-5-yl]-[2-fluoro-6-[(6-methoxy-3-pyridyl)amino]-3-pyridyl]methanone]",,M (moderate solubility if the threshold concentration is 31.3 μM to 250 μM),M (moderate solubility if the threshold concentration is 31.3 μM to 250 μM),L (low solubility if the threshold concentration is <31.3 μM),L (low solubility if the threshold concentration is <31.3 μM)
"O=C(c1ccc(Nc2ccc(C3CC3)nc2)nc1F)c1c[nH]c2ncnc(NCC(F)(F)F)c12 [Compound P-4090, [6-[(6-cyclopropyl-3-pyridyl)amino]-2-fluoro-3-pyridyl]-[4-(2,2,2-trifluoroethylamino)-7H-pyrrolo[2,3-d]pyrimidin-5-yl]methanone]",< 100,,,,
"COc1ccc(Nc2ccc(C(=O)c3c[nH]c4ncnc(NC5CCC(F)(F)CC5)c34)c(F)n2)cn1 [Compound P-4056, [4-[(4,4-difluorocyclohexyl)amino]-7H-pyrrolo[2,3-d]pyrimidin-5-yl]-[2-fluoro-6-[(6-methoxy-3-pyridyl)amino]-3-pyridyl]methanone]",,M (moderate solubility if the threshold concentration is 31.3 μM to 250 μM),M (moderate solubility if the threshold concentration is 31.3 μM to 250 μM),M (moderate solubility if the threshold concentration is 31.3 μM to 250 μM),L (low solubility if the threshold concentration is <31.3 μM)

# Continued, in another order:
IC50 (TrkA kinase) [nM],Compound,"turbidity threshold (L, M, H) 1.4 [1]","turbidity threshold (L, M, H) 4.5 [1]","turbidity threshold (L, M, H) 6.8 [1]","turbidity threshold (L, M, H) 7.4 [1]"
< 10,"CCc1ccc(Nc2ccc(C(=O)c3c[nH]c4ncnc(NC(C)C)c34)c(F)n2)cn1 [Compound P-4117, [6-[(6-ethyl-3-pyridyl)amino]-2-fluoro-3-pyridyl]-[4-(isopropylamino)-7H-pyrrolo[2,3-d]pyrimidin-5-yl]methanone]",H (high solubility if the threshold concentration is >250 μm),L (low solubility if the threshold concentration is <31.3 μM),L (low solubility if the threshold concentration is <31.3 μM),L (low solubility if the threshold concentration is <31.3 μM)
< 100,"COc1cncc(Nc2ccc(C(=O)c3c[nH]c4ncnc(NCC(F)(F)F)c34)c(F)n2)c1 [Compound P-4103, [2-fluoro-6-[(5-methoxy-3-pyridyl)amino]-3-pyridyl]-[4-(2,2,2-trifluoroethylamino)-7H-pyrrolo[2,3-d]pyrimidin-5-yl]methanone]",L (low solubility if the threshold concentration is <31.3 μM),M (moderate solubility if the threshold concentration is 31.3 μM to 250 μM),M (moderate solubility if the threshold concentration is 31.3 μM to 250 μM),M (moderate solubility if the threshold concentration is 31.3 μM to 250 μM)
< 10,"CCc1ccc(Nc2ccc(C(=O)c3c[nH]c4ncnc(NCC(C)(C)O)c34)c(F)n2)cn1 [Compound P-4064, [6-[(6-ethyl-3-pyridyl)amino]-2-fluoro-3-pyridyl]-[4-[(2-hydroxy-2-methyl-propyl)amino]-7H-pyrrolo[2,3-d]pyrimidin-5-yl]methanone]",,,,
< 10,"COc1ccc(Nc2ccc(C(=O)c3c[nH]c4ncnc(NC5CCCCC5)c34)c(F)n2)cn1 [Compound P-4082, [4-(cyclohexylamino)-7H-pyrrolo[2,3-d]pyrimidin-5-yl]-[2-fluoro-6-[(6-methoxy-3-pyridyl)amino]-3-pyridyl]methanone]",M (moderate solubility if the threshold concentration is 31.3 μM to 250 μM),L (low solubility if the threshold concentration is <31.3 μM),L (low solubility if the threshold concentration is <31.3 μM),L (low solubility if the threshold concentration is <31.3 μM)
< 10,"CCc1ccc(Nc2ccc(C(=O)c3c[nH]c4ncnc(NCC5CC5)c34)c(F)n2)cn1 [Compound P-4118, [4-(cyclopropylmethylamino)-7H-pyrrolo[2,3-d]pyrimidin-5-yl]-[6-[(6-ethyl-3-pyridyl)amino]-2-fluoro-3-pyridyl]methanone]",H (high solubility if the threshold concentration is >250 μm),M (moderate solubility if the threshold concentration is 31.3 μM to 250 μM),M (moderate solubility if the threshold concentration is 31.3 μM to 250 μM),L (low solubility if the threshold concentration is <31.3 μM)
< 100,"CCc1ccc(Nc2ccc(C(=O)c3c[nH]c4ncnc(Nc5ccc(C)nc5)c34)c(F)n2)cn1 [Compound P-4086, [6-[(6-ethyl-3-pyridyl)amino]-2-fluoro-3-pyridyl]-[4-[(6-methyl-3-pyridyl)amino]-7H-pyrrolo[2,3-d]pyrimidin-5-yl]methanone]",,,,
< 10,"Cc1ccc(Nc2ccc(C(=O)c3c[nH]c4ncnc(NCC5CC5)c34)c(F)n2)cn1 [Compound P-4113, [4-(cyclopropylmethylamino)-7H-pyrrolo[2,3-d]pyrimidin-5-yl]-[2-fluoro-6-[(6-methyl-3-pyridyl)amino]-3-pyridyl]methanone]",,,,
< 10,"COc1ccc(Nc2ccc(C(=O)c3c[nH]c4ncnc(NC5CC5)c34)c(F)n2)cn1 [Compound P-4126, [4-(cyclopropylamino)-7H-pyrrolo[2,3-d]pyrimidin-5-yl]-[2-fluoro-6-[(6-methoxy-3-pyridyl)amino]-3-pyridyl]methanone]",,,,
< 10,"CNc1ncnc2[nH]cc(C(=O)c3ccc(Nc4ccc(OC)nc4)nc3OC)c12 [Compound P-4085, [2-methoxy-6-[(6-methoxy-3-pyridyl)amino]-3-pyridyl]-[4-(methylamino)-7H-pyrrolo[2,3-d]pyrimidin-5-yl]methanone]",,,,
